According to patent US12139488B2, “Pyrido[3,2-d]pyrimidine compounds uses thereof for treating a proliferative disease” (Universite de Montreal, priority 2021, dated 2024):
Like-named read-outs stand apart in the source and are kept apart here.

Tests used:
Type in all cases: cell-based, human
[1] = system: pERK in NCI-H358 cells (KRAS-G12C); assay: Phospho-ERK inhibition (AlphaLISA), NCI-H358; conditions: for IC50: NCI-H358; for NCI-H358 pERK % Ymin: NCI-H358, value in parentheses
Description: (§1) All cancer cell lines (A375, A101D, A2058, RKO, HT29 SK-MEL 30, IPC298, HepG2, HCT-116, Lovo, SWV620, SW480, NCI-H358, NCI-H2122, Calu-6, NCIH2087, NCIH1755, NCIH1666 and Mewo) were obtained from ATCC and cultured in RPMI-1640 medium (Gibco) supplemented with 5% heat inactivated fetal bovine serum (FBS, Wisent) at 37° C. under 5% CO2. Cells were maintained in T175 flasks (Greiner). They were passaged by removing the culture medium, washing once in 10 mL of room temperature Phosphate Buffered Saline (PBS; Wisent) and incubating at 37° C. with 2 mL of 0.05% Trypsin (Thermo-Fisher). Trypsin was then inactivated by adding complete growth medium and the cells were then replated in a T175 culture dish at the appropriate dilution. All cell lines were routinely tested for mycoplasma contamination. Tissue type and mutational status of each cell line can be found in Table B.
(§2) AlphaLISA® SureFire® Ultra™ p-ERK 1/2 (Thr202/Tyr204) analysis was conducted on cells plated in 100 μL of complete RPMI-1640 growth medium in 96-well flat-bottomed transparent dishes (Costar) at a density indicated in Table C. Cells were maintained overnight at 37° C. under 5% CO2 before treatment with compounds' dilution series for one hour. The cell density in cells/cm^2 corresponds to cell number divided by the area of one well of a 96-well plate ([…]).
(§3) In a dilution series 100 μL/well of test substance dilution prepared in complete RPMI-1640 growth media was added to the cells. The dilution series is selected so that ten concentrations cover a range from 10 μM to 0.33 nM. If necessary the initial concentration of 10 μM is increased to 100 μM or lowered to 1 μM (as in the case of A375 and H1666 cells, which are generally more sensitive to the compounds) and further dilution is carried out accordingly. The final concentration of DMSO in the assay is set at 0.5%.
(§4) After treatment, media was removed and cells were lysed in 50 μL of 1× AlphaScreen Ultra Lysis Buffer (Perkin Elmer). The AlphaLISA® SureFire® Ultra™ p-ERK 1/2 (Thr202/Tyr2O4) (PerkinElmer) reactions were performed with 5 μL of cell lysate according to the manufacturer's specifications in 384-well proxyplates (Perkin Elmer) followed by overnight incubation of the reactions at room temperature in a humidified chamber. After completion of the reactions, the signals were recorded on an EnVision plate reader (Perkin Elmer) using built in AlphaLISA® settings.
(§5) The effect of each compound dilution on the pERK signal was expressed in % inhibition and calculated as follows. An internal 100% inhibition control ([…] trametinib, cat #HY-10999; MedChem Express; CAS #871700-17-3) was included in each plate and used as a measure of pERK background. First, the value obtained for trametinib was subtracted from each data point. The average of DMSO (vehicle) controls (set as 0% inhibition) was established and used to calculate % inhibition: % inhibition=100*(1-((pERK signalcompound)/(pERK signalDMSO)))
(§6) The ability of each compound to inhibit pERK signal was expressed as an IC50 value obtained by plotting the inhibition values for each data point of a dilution series and fitting the obtained curves using a log(agonist) versus response-variable slope (four parameters) function using GraphPadPrism (V7.0) or Dotmatics Screening Ultra platform.
(§7) When present, paradoxical pERK induction is inferred from the negative % inhibition values observed in the pERK IC50 curves of a compound.

SW620 cells (KRAS-G12V) = assay: Proliferation inhibition (CellTiter-Glo), SW620; conditions: SW620, 3 days, read-out: SW620 Prolif. EC50
Description: as §1
(§8) CellTiter-Glo® viability analysis was conducted on cells plated in 100 μL of complete RPMI-1640 growth medium in 96-well flat-bottomed white opaque plates (Greiner or Croning) at a density indicated in Table E (for each CCL, number of cells plated per well of a 96-well plate to perform the CellTiter-Glo® cell viability assay). The cell density in cells/cm^2 would correspond to cell number divided by the area of one well of a 96-well plate (0.32 cm^2). […]
(§9) After 3 days of incubation, the growth media were removed by aspiration and 60 μL of diluted CellTiter-Glo® reagent (10 μL CellTiter-Glo® reagent+50 μL of PBS) was added to each well. […] Luminescence signals were then acquired on a Synergy Neo2 plate reader (Biotek).
(§10) The effect of each compound dilution on the proliferation of cancer cell lines was expressed in % inhibition and calculated as follows. […]
as §6, with “proliferation” for “pERK signal”, “a EC50” for “an IC50”, “effect” for “inhibition”

[2] = system: NCIH2087 cells (BRAF L597V; KRAS Q61K); assay: Proliferation inhibition (CellTiter-Glo), NCIH2087; conditions: NCIH2087, 3 days, read-out: NCIH2087 Prolif. EC50
Description: as §1, §8, §9, §10
as §6, with “proliferation” for “pERK signal”, “a EC50” for “an IC50”, “effect” for “inhibition”

[3] = system: pERK in NCIH2087 cells (BRAF L597V; KRAS Q61K); assay: Phospho-ERK inhibition (AlphaLISA), NCIH2087; conditions: for NCIH2087 pERK % Ymin: NCIH2087, value in parentheses
Description: as §1, §2, §3, §4, §5, §6, §7

Mewo cells (NF1 LOF) = assay: Proliferation inhibition (CellTiter-Glo), Mewo; conditions: 3 days, read-out: Mewo Prolif. EC50
Description: as §1, §8, §9, §10
as §6, with “proliferation” for “pERK signal”, “a EC50” for “an IC50”, “effect” for “inhibition”

[4] = system: SK-MEL30 cells (NRAS-Q61K); assay: Proliferation inhibition (CellTiter-Glo), SK-MEL30; conditions: SK-MEL30, 3 days, read-out: SK-MEL30 Prolif. EC50
Description: as §1, §8, §9, §10
as §6, with “proliferation” for “pERK signal”, “a EC50” for “an IC50”, “effect” for “inhibition”

Compound | IC50 ([1]; Homo sapiens) | NCI-H358 pERK % Ymin [1] | EC50 (SW620 cells (KRAS-G12V); Homo sapiens, SW-620, 72 h) | EC50 ([2]; Homo sapiens, NCI-H2087, 72 h) | IC50 ([3]; Homo sapiens, NCI-H2087) | NCIH2087 pERK % Ymin [3] | EC50 (Mewo cells (NF1 LOF); Homo sapiens, 72 h) | EC50 ([4]; Homo sapiens, SK-MEL-30, 72 h) | IC50 [1] | EC50 (SW620 cells (KRAS-G12V)) | EC50 [2] | IC50 ([3]; NCIH2087) | EC50 (Mewo cells (NF1 LOF)) | EC50 [4]
Cc1ccc2c(Nc3cccc(Cl)c3F)nccc2c1NC(=O)c1csc2c(N)ncnc12 [Belvarafenib, reference compound] | 30 to 300 nM | −122% | 300 to 3000 nM | < 30 nM | < 30 nM | 6% | 300 to 3000 nM | < 30 nM | – | – | – | – | – | –
Nc1cccc2c1ncn2-c1ccc2ncnc(Nc3c(F)ccc(NS(=O)(=O)c4cccc(Cl)c4Cl)c3F)c2n1 [Example 99] | – | 11% | – | – | – | 15% | – | – | 30 to 300 nM | 300 to 3000 nM | 300 to 3000 nM | < 30 nM | < 30 nM | < 30 nM
CC1(O)CCN(c2cccc3c2ncn3-c2ccc3ncnc(Nc4c(F)ccc(NS(=O)(=O)c5cccc(Cl)c5Cl)c4F)c3n2)CC1 [Example 524] | – | −13% | – | – | – | 3% | – | – | 30 to 300 nM | 300 to 3000 nM | < 30 nM | < 30 nM | < 30 nM | < 30 nM
